From patent US6753345B2, “7-hexanolytaxol and methods for preparing the same” (Hauser, Inc., priority 1998, dated 2004)

Tests used:
CCRF-CEM cells = experiment: G2/M arrest; type: cell-based; settings: minimum concentration that results in 60% of CCRF-CEM cells to arrest in G2-M
HL-60(TB) = HL-60(TB) (Leukemia); PG=0; 48 hour incubation
NCI-H322M = NCI-H322M (Non-Small Cell Lung Cancer); PG=0; 48 hour incubation
LOX-IMVI [1] = settings: LOX-IMVI (Melanoma); PG=0; 48 hour incubation
LOX-IMVI [2] = experiment: cells; settings: Homo sapiens, 48 h
IGR-OV1 = experiment: SRB cytotoxicity screening assay (Ovarian); settings: for GI50: read-out: Log10 GI50 (converted); for Log10 TGI: IGR-OV1 (Ovarian), PG=0, 48 hour incubation
MOLT-4 = experiment: SRB cytotoxicity screening assay (Leukemia); settings: for GI50 / CC50: Homo sapiens, MOLT-4, 48 h; for GI50: read-out: Log10 GI50 (converted); for CC50: read-out: Log10 LC50 (converted); for Log10 TGI: MOLT-4 (Leukemia), PG=0, 48 hour incubation
RPMI-8226 = experiment: SRB cytotoxicity screening assay (Leukemia); settings: for CC50: read-out: Log10 LC50 (converted)
SR = experiment: SRB cytotoxicity screening assay (Leukemia); settings: for GI50 / CC50: Homo sapiens, SR, 48 h; for GI50: read-out: Log10 GI50 (converted); for CC50: read-out: Log10 LC50 (converted)
MALME-3M = experiment: SRB cytotoxicity screening assay (Melanoma); settings: for Log10 TGI: MALME-3M (Melanoma), PG=0, 48 hour incubation
SK-MEL-2 = experiment: SRB cytotoxicity screening assay (Melanoma); settings: for GI50: read-out: Log10 GI50 (converted)
SK-MEL-28 = experiment: SRB cytotoxicity screening assay (Melanoma)
UACC-257 = experiment: SRB cytotoxicity screening assay (Melanoma); settings: for CC50: read-out: Log10 LC50 (converted); for Log10 TGI: UACC-257 (Melanoma), PG=0, 48 hour incubation
COLO 205 = experiment: SRB cytotoxicity screening assay (Colon Cancer); settings: for GI50: read-out: Log10 GI50 (converted)
HCT-116 = experiment: SRB cytotoxicity screening assay (Colon Cancer); settings: for Log10 TGI: HCT-116 (Colon Cancer), PG=0, 48 hour incubation
RXF-393 = experiment: SRB cytotoxicity screening assay (Renal Cancer); settings: for GI50 / CC50: Homo sapiens, RXF 393, 48 h; for GI50: read-out: Log10 GI50 (converted); for CC50: read-out: Log10 LC50 (converted)
SN12C = experiment: SRB cytotoxicity screening assay (Renal Cancer); settings: for GI50 / CC50: Homo sapiens, SN12C, 48 h; for GI50: read-out: Log10 GI50 (converted); for CC50: read-out: Log10 LC50 (converted)
TK-10 = experiment: SRB cytotoxicity screening assay (Renal Cancer); settings: for GI50 / CC50: Homo sapiens, TK-10, 48 h; for GI50: read-out: Log10 GI50 (converted); for CC50: read-out: Log10 LC50 (converted); for Log10 TGI: TK-10 (Renal Cancer), PG=0, 48 hour incubation
UO-31 = experiment: SRB cytotoxicity screening assay (Renal Cancer); settings: for GI50 / CC50: Homo sapiens, UO-31, 48 h; for GI50: read-out: Log10 GI50 (converted); for CC50: read-out: Log10 LC50 (converted)
MCF7 = experiment: SRB cytotoxicity screening assay (Breast Cancer); settings: for GI50 / CC50: Homo sapiens, MCF7, 48 h; for GI50: read-out: Log10 GI50 (converted); for CC50: read-out: Log10 LC50 (converted)
MDA-MB-231/ATCC = experiment: SRB cytotoxicity screening assay (Breast Cancer); settings: for GI50 / CC50: Homo sapiens, MDA-MB-231, 48 h; for GI50: read-out: Log10 GI50 (converted); for CC50: read-out: Log10 LC50 (converted); for Log10 TGI: MDA-MB-231/ATCC (Breast Cancer), PG=0, 48 hour incubation
DU-145 = experiment: SRB cytotoxicity screening assay (Prostate Cancer); settings: for Log10 TGI: DU-145 (Prostate Cancer), PG=0, 48 hour incubation; for GI50 / CC50: Homo sapiens, DU-145, 48 h; for GI50: read-out: Log10 GI50 (converted); for CC50: read-out: Log10 LC50 (converted)
HOP-62 = experiment: SRB cytotoxicity screening assay (Non-Small Cell Lung Cancer); settings: for Log10 TGI: HOP-62 (Non-Small Cell Lung Cancer), PG=0, 48 hour incubation; for GI50 / CC50: Homo sapiens, HOP-62, 48 h; for GI50: read-out: Log10 GI50 (converted); for CC50: read-out: Log10 LC50 (converted)
NCI-H460 = experiment: as above; settings: for Log10 TGI: NCI-H460 (Non-Small Cell Lung Cancer), PG=0, 48 hour incubation
[3] = system: cell line panel (60 lines, nine disease-related subpanels); experiment: SRB cytotoxicity screening assay, whole cell line panel (mean values)
[4] = mean value over the cell line panel

SMILES: CCCCCC(=O)O[C@H]1C[C@H]2OC[C@@]2(OC(C)=O)[C@H]2[C@H](OC(=O)c3ccccc3)[C@]3(O)C[C@H](OC(=O)[C@H](O)[C@@H](NC(=O)c4ccccc4)c4ccccc4)C(C)=C([C@@H](OC(C)=O)C(=O)[C@]12C)C3(C)C [7-hexanoyltaxol]
- G2/M arrest MED (CCRF-CEM cells): 0.10 µg/mL
- Log10 TGI (HL-60(TB)): <−8.00 molar
- Log10 TGI (NCI-H322M): −4.51 molar
- Log10 TGI (LOX-IMVI [1]): −4.68 molar
- CC50 (LOX-IMVI [2]; read-out: Log10 LC50 (converted)): 57500 nM
- GI50 (IGR-OV1; Homo sapiens, IGROV-1, 48 h): < 10 nM
- CC50 (IGR-OV1; Homo sapiens, IGROV-1, 48 h, read-out: Log10 LC50 (converted)): > 100000 nM
- Log10 TGI (IGR-OV1): −4.52 molar
- GI50 (MOLT-4): < 10 nM
- CC50 (MOLT-4): > 100000 nM
- Log10 TGI (MOLT-4): −4.69 molar
- GI50 (RPMI-8226; Homo sapiens, RPMI-8226, 48 h, read-out: Log10 GI50 (converted)): < 10 nM
- CC50 (RPMI-8226; Homo sapiens, RPMI-8226, 48 h): > 100000 nM
- GI50 (SR): < 10 nM
- CC50 (SR): > 100000 nM
- GI50 (MALME-3M; Homo sapiens, Malme-3M, 48 h, read-out: Log10 GI50 (converted)): < 10 nM
- CC50 (MALME-3M; Homo sapiens, Malme-3M, 48 h, read-out: Log10 LC50 (converted)): 81300 nM
- Log10 TGI (MALME-3M): −4.65 molar
- GI50 (SK-MEL-2; Homo sapiens, SK-MEL-2, 48 h): 93.3 nM
- CC50 (SK-MEL-2; Homo sapiens, SK-MEL-2, 48 h, read-out: Log10 LC50 (converted)): > 100000 nM
- Log10 TGI (SK-MEL-2; SK-MEL-2 (Melanoma), PG=0, 48 hour incubation): −4.56 molar
- GI50 (SK-MEL-28; Homo sapiens, SK-MEL-28, 48 h, read-out: Log10 GI50 (converted)): < 10 nM
- CC50 (SK-MEL-28; Homo sapiens, SK-MEL-28, 48 h, read-out: Log10 LC50 (converted)): > 100000 nM
- Log10 TGI (SK-MEL-28; SK-MEL-28 (Melanoma), PG=0, 48 hour incubation): −4.33 molar
- CC50 (UACC-257; Homo sapiens, UACC-257, 48 h): > 100000 nM
- Log10 TGI (UACC-257): −4.00 molar
- Log10 TGI (COLO 205; COLO 205 (Colon Cancer), PG=0, 48 hour incubation): −7.38 molar
- GI50 (COLO 205; Homo sapiens, COLO 205, 48 h): < 10 nM
- CC50 (COLO 205; Homo sapiens, COLO 205, 48 h, read-out: Log10 LC50 (converted)): 26300 nM
- Log10 TGI (HCT-116): −4.94 molar
- GI50 (HCT-116; Homo sapiens, HCT-116, 48 h, read-out: Log10 GI50 (converted)): < 10 nM
- CC50 (HCT-116; Homo sapiens, HCT-116, 48 h, read-out: Log10 LC50 (converted)): > 100000 nM
- GI50 (RXF-393): < 10 nM
- CC50 (RXF-393): 91200 nM
- GI50 (SN12C): < 10 nM
- CC50 (SN12C): > 100000 nM
- Log10 TGI (SN12C; SN12C (Renal Cancer), PG=0, 48 hour incubation): >−4.00 molar
- GI50 (TK-10): 32.4 nM
- CC50 (TK-10): > 100000 nM
- Log10 TGI (TK-10): −4.45 molar
- GI50 (UO-31): 64.6 nM
- CC50 (UO-31): > 100000 nM
- Log10 TGI (UO-31; UO-31 (Renal Cancer), PG=0, 48 hour incubation): >−4.00 molar
- GI50 (MCF7): < 10 nM
- CC50 (MCF7): > 100000 nM
- Log10 TGI (MCF7; MCF7 (Breast Cancer), PG=0, 48 hour incubation): −4.73 molar
- GI50 (MDA-MB-231/ATCC): 28.2 nM
- CC50 (MDA-MB-231/ATCC): 23400 nM
- Log10 TGI (MDA-MB-231/ATCC): −6.13 molar
- Log10 TGI (DU-145): −7.00 molar
- GI50 (DU-145): < 10 nM
- CC50 (DU-145): 37200 nM
- Log10 TGI (HOP-62): −6.52 molar
- GI50 (HOP-62): 14.1 nM
- CC50 (HOP-62): 89100 nM
- GI50 (NCI-H460; Homo sapiens, NCI-H460, 48 h, read-out: Log10 GI50 (converted)): < 10 nM
- CC50 (NCI-H460; Homo sapiens, NCI-H460, 48 h, read-out: Log10 LC50 (converted)): > 100000 nM
- Log10 TGI (NCI-H460): −4.75 molar
- potency compared with paclitaxel ([3]; cancer cell line panel, Table I): in most instances is as potent and in some instances more potent than paclitaxel
- Log10 GI50, MG_MID [3, 4]: −7.79 molar
- Log10 LC50, MG_MID [3, 4]: −4.32 molar
- Log10 TGI, MG_MID [3, 4]: −5.59 molar

SMILES: CC(=O)O[C@H]1C(=O)[C@@]2(C)[C@H]([C@H](OC(=O)c3ccccc3)[C@]3(O)C[C@H](OC(=O)[C@H](O)[C@@H](NC(=O)c4ccccc4)c4ccccc4)C(C)=C1C3(C)C)[C@]1(OC(C)=O)CO[C@@H]1C[C@@H]2O [Paclitaxel, paclitaxel, reference compound]
- G2/M arrest MED (CCRF-CEM cells): 0.025 µg/mL
- Log10 TGI (HL-60(TB)): >−4.53 molar
- Log10 TGI (NCI-H322M): −4.46 molar
- Log10 TGI (LOX-IMVI [1]): −4.65 molar
- GI50 (LOX-IMVI [2]; read-out: Log10 GI50 (converted)): 0.00158 nM
- GI50 (IGR-OV1; Homo sapiens, IGROV-1, 48 h): 2.45 nM
- Log10 TGI (IGR-OV1): −4.19 molar
- GI50 (MOLT-4): 0.00851 nM
- CC50 (MOLT-4): > 100000 nM
- Log10 TGI (MOLT-4): >−4.00 molar
- CC50 (RPMI-8226; Homo sapiens, RPMI-8226, 48 h): > 100000 nM
- Log10 TGI (RPMI-8226; RPMI-8226 (Leukemia), PG=0, 48 hour incubation): >−4.00 molar
- GI50 (SR): 4.57 nM
- CC50 (SR): > 100000 nM
- Log10 TGI (SR; SR (Leukemia), PG=0, 48 hour incubation): >−4.00 molar
- Log10 TGI (MALME-3M): −4.46 molar
- GI50 (SK-MEL-2; Homo sapiens, SK-MEL-2, 48 h): 0.295 nM
- GI50 (UACC-257; Homo sapiens, UACC-257, 48 h, read-out: Log10 GI50 (converted)): 0.0501 nM
- CC50 (UACC-257; Homo sapiens, UACC-257, 48 h): 93300 nM
- Log10 TGI (UACC-257): −4.52 molar
- GI50 (COLO 205; Homo sapiens, COLO 205, 48 h): 0.00851 nM
- Log10 TGI (HCT-116): −4.82 molar
- GI50 (RXF-393): 4.79 nM
- CC50 (RXF-393): 35500 nM
- Log10 TGI (RXF-393; RXF-393 (Renal Cancer), PG=0, 48 hour incubation): −4.90 molar
- GI50 (SN12C): 0.295 nM
- CC50 (SN12C): > 100000 nM
- GI50 (TK-10): 12.9 nM
- CC50 (TK-10): > 100000 nM
- Log10 TGI (TK-10): >−4.00 molar
- GI50 (UO-31): 813 nM
- CC50 (UO-31): > 100000 nM
- GI50 (MCF7): 0.00204 nM
- CC50 (MCF7): > 100000 nM
- GI50 (MDA-MB-231/ATCC): 2.88 nM
- CC50 (MDA-MB-231/ATCC): 51300 nM
- Log10 TGI (MDA-MB-231/ATCC): −4.84 molar
- Log10 TGI (DU-145): >−4.00 molar
- GI50 (DU-145): 0.417 nM
- CC50 (DU-145): > 100000 nM
- Log10 TGI (HOP-62): −4.80 molar
- GI50 (HOP-62): 0.214 nM
- CC50 (HOP-62): 89100 nM
- Log10 TGI (NCI-H460): −4.92 molar
- Log10 TGI, MG_MID [3, 4]: −4.54 molar
- GI50 ([3]; read-out: Log10 GI50, MG_MID (converted)): 0.0708 nM
- CC50 ([3]; read-out: Log10 LC50, MG_MID (converted)): 87100 nM
